Assay results reported in patent publication US6630454B2, “Method and pharmaceutical composition for the treatment of cancer” (priority 2001, dated 2003).

Columns and labels:
C6 and PANC-1 cells = system: C6 and PANC-1 cells; design: dose or concentration left out as unconfirmed; conditions: […] μM fluoxetine alone, 24 hours
[1] = highest safe dose used for accepted indications; cited from earlier work
[2] = system: PANC-1, C6, MCF-7, U2OS and HT1080 cells
Procedure: Studies similar in general to those outlined in the previous section, were conducted with five cell lines selected for this task (PANC-1, C6, MCF-7, U2OS and HT1080), increasing the length of the experiment to 48 hours. The studies were done with DOX and with Vinblastine (VIN or VLB).

[3] = clinical studies, review (DeVita et al., 1993); cited from earlier work

For `CNCCC(Oc1ccc(C(F)(F)F)cc1)c1ccccc1` (centres unmarked) [fluoxetine, N-methyl 3-(p-trifluoromethylphenoxy)-3-phenylpropylamine], the “effect of fluoxetine alone on cell survival” value (C6 and PANC-1 cells) is listed as “does not affect cell survival at all”, the highest safety limit [1] is listed as 15 µM and the “potentiation of the cytotoxic effect of the chemotherapeutic drug” value [2] is listed as “potentiates the cytotoxic effect”.

For `CC/C(=C(\c1ccccc1)c1ccc(OCCN(C)C)cc1)c1ccccc1` [tamoxifen], the “side effects / dose-limiting toxicity when used as chemosensitizer” value [3] is listed as “attributed to the inherent toxicity of the chemosensitizer”.

In the case of `CN1CCN(CCCN2c3ccccc3Sc3ccc(C(F)(F)F)cc32)CC1` [trifluoperazine], the “side effects / dose-limiting toxicity when used as chemosensitizer” value [3] is given as “attributed to the inherent toxicity of the chemosensitizer”.
